{
  "source": "patent US6028083A",
  "about": "“Esters of (+)-α-(2,3-dimethoxyphenyl)-1-[2-(4-fluorophenyl) ethyl]-4-piperidinemethanol” (Hoechst Marion Roussel, Inc., priority 1997, dated 2000)",
  "key": {"5HT2A receptor [1]": {"test_system": "5HT2A receptor", "test": "Antagonism of DOI-induced behaviors in rats", "type": "in vivo, Male Sprague-Dawley rats", "conditions": "single i.m. injection in sesame oil, 120 mg/kg equivalent to MDL 100,907, DOI 3.0 mg/kg i.p.", "source_text": "The compound of the present invention used in this test was (+)-α-(2,3-Dimethyoxyphenyl)-1-[2-(4-fluorophenyl)ethyl]-4-piperidinemethanol decanoate--Example 4 herein.-- The 5-HT2A/2C agonist (±)-DOI HCl (1-(2,5-dimethoxy-4-iodophenyl)-2-aminopropane hydrochloride) induces several quantifiable behaviors in rats. These behaviors include \"shakes\" (a quick head and body shake, a.k.a. wet dog shakes), \"forepaw tapping\" (rapid forepaw treading) and \"skin-jerks\" (paraspinal muscle contractions or dorsal skin-shrugging).\nMale Sprague-Dawley rats (180±50 g) were housed seven per cage and allowed 1 week to acclimate to the vivarium. Food and water were freely available. The temperature and light cycle (12 h on-12 h off)were automatically maintained. Individual rats were tested once. Each testing group contained seven animals. Experiments took place in the vivarium room where the animals were housed.\nVehicle control animals were injected with sesame oil alone. (±)-DOI HCl (3.0 mg/kg, 1 mL/kg body weight) was dissolved in distilled water with the aid an ultrasonic bath, and injected intraperitoneally on appropriate testing days.\n(+)-α-(2,3-Dimethyoxyphenyl)-1-[2-(4-fluorophenyl)ethyl]-4-piperidinementhanol decanoate-treated rats were tested for antagonism of DOI-induced behaviors 1, 5, 7, 14, 21, 28 and 40 days after the single (+)-α-(2,3-Dimethyoxyphenyl)-1-[2-(4-fluorophenyl)ethyl]-4-piperidinementhanol decanoate intramuscular injection. Each rat was tested once. Immediately after DOI injection rats were placed under inverted clear plastic boxes (28 L×25 W×25 H cm) which were arranged on top of clean absorbent paper. Rats were continuously watched by trained observers (blind to treatment) for 30 minutes for the occurrence of DOI-induced behaviors (shakes, skin-jerks and forepaw tapping bouts) and then returned to their home cages. Rats were later used for pharmacokinetic studies. The frequencies of DOI-induced behaviors were recorded and then summed to provide a single behavioral score for each animal.\nThe mean and standard error of the behavioral scores of each group was determined. […]"}, "in vivo": {"test": "in vivo", "parameters": "species or system male Wistar rats", "conditions": "rat, im, 120 mg/kg", "experimental": "Rats are anesthetized with a lethal i.p. dose of nembutal and blood collected at 3 and 6 hours, and various days post-dose (n=5 for each timepoint) in heparinized vacutainers. Blood samples are centrifuged for 30 minutes at 5 C and at approximately 2700 rpm. Plasma is removed and stored at -20° C. until assay. The plasma samples are analyzed by an appropriate HPLC method. Brains will also be collected at the above timepoints and stored at -80° C. until analyzed by the appropriate HPLC method."}, "[2]": {"test": "Chronic Mild Stress Model of Depression (CMS), consumption of 1% sucrose solution", "type": "in vivo, Male Wistar rats", "source_text": "CMS uses mild stressors, such as food and water deprivation, small temperature changes, changes of cage mates, etc. Over a period of weeks of exposure to the mild stressors, the animals gradually reduce their consumption of a highly preferred sucrose solution which persists (in untreated animals) for several weeks following the cessation of stress. This decreased sensitivity to reward (the sucrose solution) reflects anhedonia, a symptom of a Major Depressive Episode (see for example, Behavioral Pharmacol.5: Suppl. 1, p. 86 (1994) where lithium, carbamazepine and ketoconazole were evaluated in CMS; Psychopharmacology 93:358-364 (1987) where a tricyclic antidepressant was evaluated in CMS; Behavioral Pharmacology:5:344-350 (1994) where a catechol-O-methyl transferase inhibitor was evaluated in CMS).\nMale Wistar rats were brought into the laboratory two months before the start of the experiment at which time they weighed approximately 300 grams. Except as described below, the animals were singly housed, with food a water freely available, and maintained on a 12 hour light/dark cycle (lights on at 8 AM) at a temperature of 22±° C.\nThe animals were first trained to consume a 1% sucrose solution; training consisted of eight 1 hour baseline tests in which sucrose was presented, in the home cage, following 14 hours food and water deprivation; intake was measured by weighing pre-weighed bottles containing the sucrose solution at the end of the test. Subsequently, sucrose consumption was monitored, under similar conditions, at weekly intervals throughout the whole experiment.\nOn the basis of their sucrose intakes in the final baseline test, the animals were divided into two matched groups. One group of animals was subjected to a chronic mild stress procedure for a period of 9 consecutive weeks. Each week of stress regime consisted of: two periods of food or water deprivation (12 and 14 hour), two periods of 45 degree cage tilt (12 and 14 h), two periods of intermittent overnight illumination (lights on and off every 2 hours), two 14 hour periods of soiled cage (200 ml water in sawdust bedding), two 14 hour periods of paired housing, two 14 hour periods of low intensity stroboscopic illumination (150 flashes/min). Stressors were applied continuously throughout the day and night, and scheduled randomly. […] They were deprived of food and water for the 14 hours preceding each sucrose test, but otherwise food and water were freely available in the home cage. […] All drug injections were in a volume of 1 ml/kg body weight. Drugs were administered at 10 AM and sucrose tests were carried out 24 hours following the last drug treatment. After five weeks, the treatments were terminated and after one week of withdrawal a final sucrose test was carried out. Stress was continued throughout the period of treatment and withdrawal.\nResults were analyzed by multiple analysis of variance, followed by Fisher's LSD test for post hoc comparisons of means."}, "5HT2A receptor [3]": {"test_system": "5HT2A receptor", "conditions": "cited from earlier work"}, "[4]": {"test_system": "dopamine efflux in the medial prefrontal cortex", "conditions": "European Journal of Pharmacology 273: 273-279 (1995); cited from earlier work"}, "[5]": {"test_system": "PPI (prepulse inhibition)", "conditions": "Psychopharmacology 124: 107-116 (1996); cited from earlier work"}, "platelets": {"test_system": "platelets", "conditions": "U.S. Pat. No. 5,561,144, cited from earlier work"}, "myocardial tissue": {"test_system": "myocardial tissue", "conditions": "no source or data given; cited from earlier work"}, "5HT2A receptor [6]": {"test_system": "5HT2A receptor", "conditions": "literature (Pranzatelli 1990; Wettstein et al. 1996); cited from earlier work"}, "[7]": {"conditions": "imipramine 10 mg/kg ip daily, five weeks"}, "[8]": {"conditions": "MDL 100,907 0.002, 0.02 and 0.2 mg/kg orally"}, "[9]": {"conditions": "MDL 100,907 0.002, 0.02 and 0.2 mg/kg orally, NS"}, "[10]": {"conditions": "MDL 100,907 0.02 and 0.2 mg/kg orally"}},
  "data": [
    {"smiles": "CCCCCCCCCC(=O)O[C@@H](c1cccc(OC)c1OC)C1CCN(CCc2ccc(F)cc2)CC1", "note": "[Example 4, (+)-α-(2,3-Dimethyoxyphenyl)-1-[2-(4-fluorophenyl)ethyl]-4-piperidinementhanol decanoate]", "values": [
      {"measurement": "antagonism of DOI-induced behavior at day 40", "setting": "5HT2A receptor [1]", "result": "no longer significant"},
      {"measurement": "duration of significant antagonism of DOI-induced behavior", "setting": "5HT2A receptor [1]; p<=0.05", "result": 28, "unit": "days"},
      {"measurement": "antagonism of DOI-induced behavior", "setting": "5HT2A receptor [1]; through day 28", "result": "Significantly antagonized DOI-induced behavior"},
      {"measurement": "concentration at 3 h", "setting": "in vivo", "result": "54.2 ± 13.3", "unit": "ng/mL"},
      {"measurement": "concentration at 6 h", "setting": "in vivo", "result": "53.8 ± 17.1", "unit": "ng/mL"},
      {"measurement": "concentration at 24 h", "setting": "in vivo", "result": "54.1 ± 18", "unit": "ng/mL"},
      {"measurement": "concentration at 48 h", "setting": "in vivo", "result": "21.6 ± 7.39", "unit": "ng/mL"},
      {"measurement": "concentration at 72 h", "setting": "in vivo", "result": "39 ± 5.64", "unit": "ng/mL"},
      {"measurement": "concentration at 96 h", "setting": "in vivo", "result": "52 ± 12.9", "unit": "ng/mL"},
      {"measurement": "concentration at 144 h", "setting": "in vivo", "result": "41.9 ± 14.6", "unit": "ng/mL"},
      {"measurement": "concentration at 192 h", "setting": "in vivo", "result": "28.7 ± 9.16", "unit": "ng/mL"},
      {"measurement": "concentration at 288 h", "setting": "in vivo", "result": "21 ± 12.8", "unit": "ng/mL"},
      {"measurement": "concentration at 360 h", "setting": "in vivo", "result": "52.4 ± 15.2", "unit": "ng/mL"},
      {"measurement": "concentration at 456 h", "setting": "in vivo", "result": "40.1 ± 8.44", "unit": "ng/mL"},
      {"measurement": "concentration at 528 h", "setting": "in vivo", "result": "46.3 ± 9.31", "unit": "ng/mL"},
      {"measurement": "concentration at 624 h", "setting": "in vivo", "result": "38.9 ± 9.35", "unit": "ng/mL"},
      {"measurement": "concentration at 696 h", "setting": "in vivo", "result": "43.7 ± 10.8", "unit": "ng/mL"},
      {"measurement": "concentration at 984 h", "setting": "in vivo", "result": "24.1 ± 9.15", "unit": "ng/mL"}
    ]},
    {"smiles": "CN(C)CCCN1c2ccccc2CCc2ccccc21", "note": "[Imipramine]", "values": [
      {"measurement": "sucrose intake in stressed animals, F(1,84)", "setting": "[2]; imipramine 10 mg/kg ip daily", "result": 16.776},
      {"measurement": "sucrose intake in stressed animals, p (treatment)", "setting": "[2]; imipramine 10 mg/kg ip daily", "result": "< 0.001"},
      {"measurement": "sucrose intake of drug-treated stressed animals vs drug- and saline-treated controls", "setting": "[2]; imipramine 10 mg/kg ip daily, after five weeks of treatment", "result": "no significant differences"},
      {"measurement": "effect on sucrose intake in control animals", "setting": "[2]; [7]", "result": "no significant effect"},
      {"measurement": "effect on sucrose intake in stressed animals", "setting": "[2]; [7]", "result": "gradual increase of sucrose intake"},
      {"measurement": "sucrose intake in stressed animals after withdrawal", "setting": "[2]; imipramine 10 mg/kg ip daily, one week after withdrawal", "result": "maintained at similar level"},
      {"measurement": "sucrose intake in control animals, F(1,84)", "setting": "[2]; imipramine 10 mg/kg ip daily, NS", "result": 0.364}
    ]},
    {"smiles": "COc1cccc([C@H](O)C2CCN(CCc3ccc(F)cc3)CC2)c1OC", "note": "[MDL 100,907, (+)-α-(2,3-dimethoxyphenyl)-1-[2-(4-fluorophenyl)ethyl]-4-piperidinemethanol]", "values": [
      {"measurement": "effect on sucrose intake throughout the whole treatment period", "setting": "[2]; MDL 100,907 0.002 mg/kg orally", "result": "no significant effect"},
      {"measurement": "sucrose intake in stressed animals vs Week 0", "setting": "[2]; MDL 100,907 0.02 mg/kg (after two weeks) and 0.2 mg/kg (after three weeks) orally", "result": "significantly increased from initial scores"},
      {"measurement": "sucrose intake in stressed animals, Treatment effect F(3,168)", "setting": "[2]; [8]", "result": 22.567},
      {"measurement": "sucrose intake in stressed animals, Treatment effect p", "setting": "[2]; [8]", "result": "< 0.001"},
      {"measurement": "sucrose intake in stressed animals, Treatment x Weeks interaction F(15,158)", "setting": "[2]; [8]", "result": 1.559},
      {"measurement": "sucrose intake in stressed animals, Treatment x Weeks interaction p", "setting": "[2]; [8]", "result": 0.05},
      {"measurement": "effect on sucrose intake in control animals", "setting": "[2]; MDL 100,907 0.002, 0.02 and 0.2 mg/kg orally daily, five weeks", "result": "no significant effect"},
      {"measurement": "sucrose intake in control animals, Treatment effect F(3,168)", "setting": "[2]; [9]", "result": 0.821},
      {"measurement": "sucrose intake in control animals, Treatment x Weeks interaction F(15,168)", "setting": "[2]; [9]", "result": 0.499},
      {"measurement": "sucrose intake of stressed animals vs vehicle-treated controls at Week 5", "setting": "[2]; [10]", "result": "comparable to that of vehicle-treated controls"},
      {"measurement": "sucrose intake of stressed animals vs vehicle-treated stressed animals at Week 5", "setting": "[2]; [10]", "result": "significantly higher than that of vehicle-treated stressed animals"},
      {"measurement": "sucrose intake one week after withdrawal", "setting": "[2]; MDL 100,907 all doses, control and stressed animals", "result": "not significantly changed"},
      {"measurement": "effect on CMS-induced deficit in sucrose intake in stressed animals", "setting": "[2]; MDL 100,907 orally daily, five weeks", "result": "gradually reversed the CMS-induced deficit in sucrose intake"},
      {"measurement": "5HT2A receptor antagonist potency", "setting": "5HT2A receptor [3]", "result": "potent 5HT2A receptor antagonist"},
      {"measurement": "influence on dopamine efflux in the medial prefrontal cortex", "setting": "[4]", "result": "tonic inhibitory influence on dopamine efflux"},
      {"measurement": "effect on disrupted PPI", "setting": "[5]", "result": "restore disrupted PPI"},
      {"measurement": "effect on rate at which platelets aggregate", "setting": "platelets", "result": "decreases the rate at which platelets aggregate"},
      {"measurement": "prevention of acute thrombosis", "setting": "platelets; especially of the coronary arteries", "result": "effective in the prevention of acute thrombosis"},
      {"measurement": "anti-arrhythmic class (Vaughan Williams)", "setting": "myocardial tissue", "result": "Class III anti-arrhythmic activity"},
      {"measurement": "effect on action potential of myocardial tissue", "setting": "myocardial tissue", "result": "increases the duration of the action potential of myocardial tissue"}
    ]},
    {"smiles": "Cc1nc2sccn2c(=O)c1CCN1CCC(=C(c2ccc(F)cc2)c2ccc(F)cc2)CC1", "note": "[ritanserin]", "values": [
      {"measurement": "block of the behavioral effects of DOI", "setting": "5HT2A receptor [6]", "result": "dose-dependently block the behavioral effects of DOI"}
    ]}
  ]
}
